Legend:
[1] = biological target: death associated protein kinase (DAPK) (Homo sapiens, UniProt P53355); experiment: Enzyme assay, DAPK; format: biochemical; conditions: read-out: DAPK IC50
Experimental: Therefore, compound MW01-026Z was selected as a starting point for variations on component A (Table 6). […] However, none of the A variations appeared to improve the activity and selectivity profile of CompoundMW01-026Z. (For purposes of illustration, only, component G was maintained throughout as an acyl moiety, while component R2 was varied as shown. All such compositions are available using the synthetic techniques described herein. Enzyme assays were conducted per procedures described elsewhere herein.) A more comprehensive structure activity relationship is summarized in Table 7, below.
With reference to the compositions of Table 3 and the enzyme assay techniques described elsewhere herein, Table 7 provides structural activity relationships observed, in accordance with this invention.

BV-2 cells = experiment: Western blot of transcription factor and kinase phosphorylation in LPS-treated BV-2 cells; format: cell-based, murine; conditions: compound 10 μM
Experimental: FIG. 2. Selective effects of compound 1 (MW01-070C) on glial activation responses and gene-regulating protein kinase pathways. BV-2 cells and rat astrocytes were treated with control buffer (C) or stimulated with LPS or Aβ1-42 peptide in the presence or absence of compound 1, and cell lysates were analyzed by Western blots. (A) Astrocytes treated with LPS and compound 1 show concentration-dependent inhibition of iNOS and IL-1β production but not GFAP. (B) Astrocytes treated with A β1-42 and compound 1 (10 μM) show inhibition of iNOS and IL-1β but not apoE and COX-2. (C) BV-2 cells treated with LPS and compound 1 (10 μM) show inhibition of phosphorylated (p-) CREB but not p-p38 and p-ATF2, as assayed with antibodies that are specific for the phosphorylated forms of the proteins. Data are expressed as percent control (mean±SD; n=3 determinations).
FIG. 7. Effects of MW01-070C on phosphorylation of transcription factors and an upstream activating kinase. BV-2 cells were incubated for 4 hr with control buffer (lane 1), 500 ng/ml LPS (lane 2), or […] LPS+10 μM MW01-070C (lane 3). The levels of phosphorylated (p-) ATF2, p38, and CREB were determined by Western blot of cell lysates, using antibodies that are specific for the phosphorylated forms of these proteins.
For analysis of transcription factor phosphorylation, BV-2 cells were plated at 2×10^5 cells/well in a 12-well tissue culture plate, and grown for 48 hrs in αMEM containing 10% FBS. Immediately before treatment, media was removed, cells were rinsed with PBS, and media changed to serum-free αMEM. Cells were then treated for 4 hrs with control buffer or LPS (500 ng/ml) in the presence or absence of MW01-070C (10 μM), and cell lysates harvested for Western blot analysis.
Cell lysates were prepared and Western blots were done as previously described [Petrova, T. V., Akama, K. T., and Van Eldik, L. J. (1999) Proc Natl Acad Sci USA 96, 4668-4673] using equal volumes of cell extracts per gel lane. The following antibodies were used: monoclonal anti-iNOS (1:1000 dilution, Transduction Labs); polyclonal anti-rat IL-1β (1:1000 dilution, R&D Systems, Inc.); monoclonal anti-glial fibrillary acidic protein (GFAP) (1:[…] dilution, Sigma); polyclonal anti-rat apoE (1:15,000 dilution) prepared as described [LaDu, M. J., Shah, J. A., Reardon, K., Getz, G. S., Bu, G., Hu, J., Guo, L., and Van Eldik, L. J. (2000) J. Biol. Chem. 275, 33974-33980]; polyclonal anti-COX-2 (1:500 dilution) and monoclonal anti-phosphoATF2 (1:1000 dilution) from Santa Cruz Biotechnology; polyclonal anti-phosphoCREB (1:1000 dilution), polyclonal anti-phosphop38 MAPK (1:1000 dilution), polyclonal anti-phosphop90RSK (1:1000 dilution), and monoclonal anti-phosphoERK1/2 (1:1000 dilution) from Cell Signaling.

Sequence of death associated protein kinase (DAPK) (P53355 whole entry, species assumed): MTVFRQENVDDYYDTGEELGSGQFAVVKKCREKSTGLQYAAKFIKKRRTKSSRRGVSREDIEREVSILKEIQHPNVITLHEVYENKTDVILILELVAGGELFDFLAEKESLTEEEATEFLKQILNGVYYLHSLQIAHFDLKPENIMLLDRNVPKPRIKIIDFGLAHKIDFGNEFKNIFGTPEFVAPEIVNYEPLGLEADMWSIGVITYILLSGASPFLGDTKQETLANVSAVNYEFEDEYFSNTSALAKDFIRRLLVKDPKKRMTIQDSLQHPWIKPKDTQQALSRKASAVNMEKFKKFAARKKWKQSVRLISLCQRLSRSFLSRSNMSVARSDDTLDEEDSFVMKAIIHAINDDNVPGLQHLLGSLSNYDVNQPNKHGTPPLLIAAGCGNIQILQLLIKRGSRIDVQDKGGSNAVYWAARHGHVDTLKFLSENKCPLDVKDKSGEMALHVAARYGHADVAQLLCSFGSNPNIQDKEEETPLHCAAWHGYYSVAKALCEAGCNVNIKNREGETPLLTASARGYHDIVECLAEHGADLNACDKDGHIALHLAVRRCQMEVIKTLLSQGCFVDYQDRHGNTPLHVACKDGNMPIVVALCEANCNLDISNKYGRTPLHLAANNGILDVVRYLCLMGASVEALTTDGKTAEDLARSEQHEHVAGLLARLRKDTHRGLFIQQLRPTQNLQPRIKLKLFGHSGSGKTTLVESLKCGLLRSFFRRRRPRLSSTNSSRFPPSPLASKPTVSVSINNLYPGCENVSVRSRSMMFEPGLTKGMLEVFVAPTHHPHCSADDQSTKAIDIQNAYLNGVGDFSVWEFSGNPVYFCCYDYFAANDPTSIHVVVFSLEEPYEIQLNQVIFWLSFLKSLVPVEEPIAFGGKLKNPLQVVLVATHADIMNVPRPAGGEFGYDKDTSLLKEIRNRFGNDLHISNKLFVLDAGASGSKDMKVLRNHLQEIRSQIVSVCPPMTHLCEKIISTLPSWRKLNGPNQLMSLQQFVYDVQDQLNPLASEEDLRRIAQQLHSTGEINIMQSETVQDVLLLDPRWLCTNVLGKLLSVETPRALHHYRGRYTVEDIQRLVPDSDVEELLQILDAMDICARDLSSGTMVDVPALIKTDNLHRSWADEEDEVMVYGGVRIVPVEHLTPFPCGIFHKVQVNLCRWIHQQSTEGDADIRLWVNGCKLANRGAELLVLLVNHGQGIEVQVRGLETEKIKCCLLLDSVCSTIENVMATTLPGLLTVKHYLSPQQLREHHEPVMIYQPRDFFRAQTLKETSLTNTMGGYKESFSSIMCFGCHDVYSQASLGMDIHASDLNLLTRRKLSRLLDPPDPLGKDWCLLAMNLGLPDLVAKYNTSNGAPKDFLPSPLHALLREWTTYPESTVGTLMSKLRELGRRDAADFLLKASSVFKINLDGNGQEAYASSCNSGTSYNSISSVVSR

N=c1cc2c(nn1CCCCCCCCCCC(=O)N1CCN(c3ncccn3)CC1)-c1ccccc1CC2 [MW01-070C]
IC50 [1]: 80 to 100 µM
phosphorylated ATF2 (BV-2 cells): does not inhibit
phosphorylated p38 MAPK (BV-2 cells): not blocked
phosphorylation of CREB (BV-2 cells): inhibited
phosphorylated p38 MAPK (BV-2 cells; listed as 1): does not inhibit
phosphorylation of CREB (BV-2 cells; listed as 1): inhibits
